Measured values from patent publication US20230091225A1, “Bifunctional chimeric heterocyclic compounds for targeted degradation of androgen receptors and use thereof” (HINOVA PHARMACEUTICALS INC., priority 2019, published 2023).

Biological target: T1, androgen receptor (AR) (Homo sapiens, UniProt P10275)
T1 sequence (P10275 1-920): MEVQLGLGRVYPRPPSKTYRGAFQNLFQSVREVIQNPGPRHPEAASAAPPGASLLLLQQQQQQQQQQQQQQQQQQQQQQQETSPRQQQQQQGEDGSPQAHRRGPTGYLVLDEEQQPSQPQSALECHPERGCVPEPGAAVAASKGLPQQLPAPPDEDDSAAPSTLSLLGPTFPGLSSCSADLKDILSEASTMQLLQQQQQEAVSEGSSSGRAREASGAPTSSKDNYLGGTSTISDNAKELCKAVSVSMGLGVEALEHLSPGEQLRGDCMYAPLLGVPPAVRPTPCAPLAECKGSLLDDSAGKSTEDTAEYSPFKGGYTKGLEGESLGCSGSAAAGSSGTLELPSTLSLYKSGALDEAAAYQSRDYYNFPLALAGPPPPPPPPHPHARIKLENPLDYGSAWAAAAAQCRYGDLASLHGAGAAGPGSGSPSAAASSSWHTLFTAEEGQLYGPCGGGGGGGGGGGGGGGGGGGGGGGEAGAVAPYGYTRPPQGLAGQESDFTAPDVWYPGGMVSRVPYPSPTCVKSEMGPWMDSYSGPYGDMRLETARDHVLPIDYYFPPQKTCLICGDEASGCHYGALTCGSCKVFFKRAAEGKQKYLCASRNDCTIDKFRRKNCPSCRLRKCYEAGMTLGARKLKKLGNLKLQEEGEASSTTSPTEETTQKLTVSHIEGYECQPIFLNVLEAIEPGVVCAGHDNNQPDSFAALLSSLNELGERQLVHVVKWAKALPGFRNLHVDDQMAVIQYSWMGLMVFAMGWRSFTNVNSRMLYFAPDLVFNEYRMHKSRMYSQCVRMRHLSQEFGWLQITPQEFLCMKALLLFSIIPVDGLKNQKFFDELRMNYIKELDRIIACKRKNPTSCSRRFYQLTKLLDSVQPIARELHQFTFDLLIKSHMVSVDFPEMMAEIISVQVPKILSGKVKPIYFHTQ
Experiment: Degradation of androgen receptor (AR) protein in VCaP cells by Western blot
Assay type: cell-based
Conditions: percentage of degraded AR at 100 nM, VCaP cells, 16 h
Summary of the method: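 AR and β-actin levels were read by Western blot with ECL detection, loading 30 μg lysate protein per well. Before lysis, VCaP cells seeded at 5×10^5/well and grown overnight were exposed to compound for 16 h, two wells per concentration, keeping DMSO at 0.1%.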

**Q.** With `N#Cc1ccc(O[C@H]2CC[C@H](NC(=O)c3ccc(N4CC(CN5CC6CN(c7cc8c(cc7F)C(=O)N(C7CCC(=O)NC7=O)C8=O)CC6C5)C4)nn3)CC2)cc1Cl` (stereo partly drawn) [Compound 137] as the molecule, how does the inhibition at 0.1 µM read?
**A.** 50 to 79%

**Q.** How did the inhibition at 0.1 µM turn out when `N#Cc1ccc(O[C@H]2CC[C@H](NC(=O)c3ccc(N4CCC(CN5CC6CN(c7ccc8c(c7)C(=O)N(C7CCC(=O)NC7=O)C8=O)CC6C5)CC4)nn3)CC2)cc1Cl` (stereo partly drawn) [Compound 252, N-((1r,4r)-4-(3-chloro-4-cyanophenoxy)cyclohexyl)-6-(4-((5-(2-(2,6-dioxopiperidin-3-yl)-1,3-dioxoisoindolin-5-yl)Hexahydropyrrolo[3,4-c]pyrrol-2(11H)-yl)methyl)piperidin-1-yl)pyridazine-3-formamide] was run?
**A.** 25 to 49%

**Q.** `N#Cc1ccc(O[C@H]2CC[C@H](NC(=O)c3cnc(N4CCC(N5CC6(CCN(c7ccc8c(c7)C(=O)N(C7CCC(=O)NC7=O)C8=O)CC6)C5)CC4)cn3)CC2)cc1Cl` (stereo partly drawn) [Compound 229, N-((1r,4r)-4-(3-chloro-4-cyanophenoxy)cyclohexyl)-5-(4-(7-(2-(2,6-dioxopiperidin-3-yl)-1,3-dioxoisoindolin-5-yl)-2,7-diazaspiro[3.5]nonan-2-yl)piperidin-1-yl)pyrazine-2-carboxamide] was tested. Which inhibition at 0.1 µM did it give?
**A.** > 80%

**Q.** How did the “% degradation” value turn out when `N#Cc1ccc(OC2CCC(NC(=O)c3ccc(N4C[C@H]5CC(N6CCN(c7cc8c(cc7F)C(=O)N(C7CCC(=O)NC7=O)C8=O)CC6)C[C@H]5C4)nn3)CC2)cc1Cl` (stereo partly drawn) [Compound 292, N-((1s,4S)-4-(3-chloro-4-cyanophenoxy)cyclohexyl)-6-((3aR,5R,6aS)-5-(4-(2-(2,6-dioxopiperidin-3-yl)-6-fluoro-1,3-dioxoisoindolin-5-yl)piperazin-1-yl)hexahydrocyclopenta[c]pyrrole-2(1H)-yl)pyridazine-3-formamide] was run?
**A.** D (<25%)

**Q.** How did the inhibition at 0.1 µM turn out when `N#Cc1ccc(O[C@H]2CC[C@H](NC(=O)c3ccc(N4CCC(CN5CCC6(C5)CN(c5cc7c(cc5F)C(=O)N(C5CCC(=O)NC5=O)C7=O)C6)CC4)nn3)CC2)cc1Cl` (stereo partly drawn) [Compound 184, N-((1r,4r)-4-(3-chloro-4-cyanophenoxy)cyclohexyl)-6-(4-((2-(2-(2,6-dioxopiperidin-3-yl)-6-fluoro-1,3-dioxoisoindolin-5-yl)-2,6-diazaspiro[3.4]octan-6-yl)methyl)piperidin-1-yl)pyridazine-3-formamide] was run?
**A.** > 80%

**Q.** With `N#Cc1ccc(O[C@H]2CC[C@H](NC(=O)c3ccc(N4CCN(C(=O)O[C@H]5C[C@@H]6CN(c7cc8c(cc7F)C(=O)N(C7CCC(=O)NC7=O)C8=O)C[C@@H]6C5)CC4)nn3)CC2)cc1Cl` (stereo partly drawn) [Compound 290] as the molecule, how does the inhibition at 0.1 µM read?
**A.** 50 to 79%

**Q.** With `N#Cc1ccc(O[C@H]2CC[C@H](NC(=O)c3ccc(N4CCC5(CN(CC6CCN(c7cc8c(cc7F)C(=O)N(C7CCC(=O)NC7=O)C8=O)CC6)C5)C4)nn3)CC2)cc1Cl` (stereo partly drawn) [Compound 183, N-((1r,4r)-4-(3-chloro-4-cyanophenoxy)cyclohexyl)-6-(2-((1-(2-(2,6-dioxopiperidin-3-yl)-6-fluoro-1,3-dioxoisoindolin-5-yl)piperidine-4-yl)methyl)-2,6-diazaspiro[3.4]octan-6-yl)pyridazine-3-formamide] as the molecule, how does the inhibition at 0.1 µM read?
**A.** > 80%

**Q.** For `CC1(C)[C@H](NC(=O)c2ccc(N3CC4CN(C5CCN(c6cc7c(cc6F)C(=O)N(C6CCC(=O)NC6=O)C7=O)CC5)CC4C3)nn2)C(C)(C)[C@H]1Oc1ccc(C#N)c(Cl)c1` (stereo partly drawn) [Compound 72, N-((1r,3r)-3-(3-chloro-4-cyanophenoxy)-2,2,4,4-tetramethylcyclobutyl)-6-(5-(1-(2-(2,6-dioxopiperidin-3-yl)-6-fluoro-1,3-dioxoisoindolin-5-yl)piperidine-4-yl)hexahydropyrrolo[3,4-c]pyrrol-2(1H)-yl)pyridazine-3-formamide], which inhibition at 0.1 µM is on record?
**A.** 25 to 49%

**Q.** For `N#Cc1ccc(O[C@H]2CC[C@H](NC(=O)c3ccc(N4CC5CN(C6CCN(c7cc8c(cc7F)C(=O)N(C7CCC(=O)NC7=O)C8=O)CC6)CC5C4)nn3)CC2)cc1Cl` (stereo partly drawn) [Compound 67], which inhibition at 0.1 µM is on record?
**A.** < 25%
